In patent US20220305090A1, “HAIR GROWING AGENT AND FOOD OR BEVERAGE PRODUCT COMPRISING SAME” (NITTA GELATIN INC., priority 2019, published 2022):

What follows are molecules tested on human normal hair papilla cells HFDPC-C (assay: Cell growth test on hair papilla cells (neutral red method, living cell number vs purified water control)). Settings: conclusion from Tables 1, 2 and 4.
Type: cell-based
Experimental: First, human normal hair papilla cells HFDPC-C (manufactured by Takara Bio Inc.) were obtained, and the hair papilla cells were then seeded at 0.2×10^4/dish in each well of a 96-well plate for cell culture (manufactured by Corning Inc.). Further, 200 μL of a basal medium (trade name: “Follicle Dermal Papilla Cell Basal Medium”, manufactured by Takara Bio Inc.) containing a growth factor accompanying the obtained hair papilla cells was supplied to each well, and the hair papilla cells were precultured in each well at 37° C. for 24 hours.
Next, the hair papilla cells were confirmed to be subconfluent, and the basal medium in each well was then replaced by 200 μL of another basal medium (trade name: “Follicle Dermal Papilla Cell Basal Medium”, manufactured by Takara Bio Inc.) free of the growth factor described above. In this way, hair papilla cells to be used for determining whether or not addition of the above-described samples promote cell growth were prepared.
To the hair papilla cells prepared as described above, amino acids, combinations of amino acids, peptides and collagen peptide mixtures which are the samples described above were added at final concentrations shown in Tables 1 and 2, and the hair papilla cells were cultured in each well at 37° C. for 72 hours. Here, to one of the wells containing the hair papilla cells prepared as described above, 20 μL, of purified water was added, and as with other hair papilla cells, culturing was performed at 37° C. for 72 hours to prepare a control test sample (control). Thereafter, for each of the hair papilla cells in the wells containing purified water or the samples, the number of living cells (living cell number) was counted by a neutral red method. Here, the “neutral red method” is a method in which neutral red is added at a final concentration of 150 μg/mL into a well where cells are cultured, the cells are cultured for 20 minutes, and washed with PBS (phosphate buffer physiological saline), 200 μL of a 50 mass % ethanol solution containing 1 mass % acetic acid is added into the well as an extraction liquid, the mixture is stirred, and the absorbance of the well containing the neutral red is measured at a wavelength of 540 nm to measure the number of living cells in the well.
The number of living cells of hair papilla cells in the well containing the sample with respect to the number of living cells of hair pallia cells in the well containing purified water (control test sample) was determined as a cell growth rate (%) to evaluate the hair papilla cell growth promoting action in the sample. Further, the cell growth rate (%) was subjected to statistical processing to evaluate significance of the hair papilla cell growth promoting action in the sample. […] Thereafter, the Student's t-test (t-test) was conducted to evaluate significance. […] In Tables 1 and 2, samples with “++” were determined to have a significance in the hair papilla cell growth promoting action. In samples with “+”, the cell growth rate (%) exceeded 100.

Row | Molecule | Hair papilla cell growth promoting action (in words)
1 | C[C@H](N)C(=O)O [Ala, alanine, reference compound] | poor hair papilla cell growth promoting action
2 | N=C(N)NCCC[C@H](N)C(=O)O [Arg, arginine, reference compound] | poor hair papilla cell growth promoting action
3 | NCC(=O)O.O=C(O)[C@@H]1CCCN1 [GP, glycine-proline] | had a hair papilla cell growth promoting action
4 | NC(=O)CC[C@H](N)C(=O)O [Gln, glutamine, reference compound] | poor hair papilla cell growth promoting action
5 | O=C(O)[C@@H]1C[C@@H](O)CN1 [O, hydroxyproline] | had a hair papilla cell growth promoting action
6 | NCC(=O)O.O=C(O)[C@@H]1CCCN1 [PG, proline-glycine] | had a hair papilla cell growth promoting action
7 | O=C(O)[C@@H]1CCCN1 [Pro, proline, reference compound] | poor hair papilla cell growth promoting action
8 | alanine-hydroxyproline-glycine [AOG] | had a hair papilla cell growth promoting action
9 | glutamic acid-hydroxyproline [EO] | had a hair papilla cell growth promoting action
10 | glutamic acid-hydroxyproline-glycine [EOG] | had a hair papilla cell growth promoting action
11 | glycine-proline-hydroxyproline [GPO] | had a hair papilla cell growth promoting action
12 | leucine-hydroxyproline [LO] | had a hair papilla cell growth promoting action
13 | phenylalanine-hydroxyproline [FO] | had a hair papilla cell growth promoting action
14 | proline-alanine [PA] | had a hair papilla cell growth promoting action
15 | proline-alanine-glycine [PAG] | had a hair papilla cell growth promoting action
16 | proline-proline [PP] | had a hair papilla cell growth promoting action
17 | serine-hydroxyproline-glycine [SOG] | had a hair papilla cell growth promoting action

Same assay, conditions: final concentration 0.05 mM, 72 hours culture, control = 100

Row | Molecule | Growth rate control = 100
18 | C[C@H](N)C(=O)O [Ala, alanine, reference compound] | 94 ± 1%
19 | N=C(N)NCCC[C@H](N)C(=O)O [Arg, arginine, reference compound] | 93 ± 6%
20 | NCC(=O)O.O=C(O)[C@@H]1CCCN1 [GP, glycine-proline] | 105 ± 4%
21 | NC(=O)CC[C@H](N)C(=O)O [Gln, glutamine, reference compound] | 92 ± 2%
22 | O=C(O)[C@@H]1C[C@@H](O)CN1 [O, hydroxyproline] | 114 ± 1%
23 | NCC(=O)O.O=C(O)[C@@H]1CCCN1 [PG, proline-glycine] | 120 ± 5%
24 | O=C(O)[C@@H]1CCCN1 [Pro, proline, reference compound] | 91 ± 4%
25 | alanine-hydroxyproline-glycine [AOG] | 127 ± 5%
26 | glutamic acid-hydroxyproline [EO] | 102 ± 6%
27 | glutamic acid-hydroxyproline-glycine [EOG] | 126 ± 10%
28 | glycine-proline-hydroxyproline [GPO] | 126 ± 3%
29 | leucine-hydroxyproline [LO] | 104 ± 6%
30 | phenylalanine-hydroxyproline [FO] | 104 ± 4%
31 | proline-alanine [PA] | 105 ± 2%
32 | proline-alanine-glycine [PAG] | 110 ± 4%
33 | proline-proline [PP] | 116 ± 3%
34 | serine-hydroxyproline-glycine [SOG] | 113 ± 10%

Same assay, conditions: final concentration 0.05 mM, Table 1

Row | Molecule | Assessment
35 | NCC(=O)O.O=C(O)[C@@H]1CCCN1 [GP, glycine-proline] | + (In samples with “+”, the cell growth rate (%) exceeded 100)
36 | O=C(O)[C@@H]1C[C@@H](O)CN1 [O, hydroxyproline] | ++
37 | NCC(=O)O.O=C(O)[C@@H]1CCCN1 [PG, proline-glycine] | ++
38 | alanine-hydroxyproline-glycine [AOG] | ++
39 | glutamic acid-hydroxyproline [EO] | + (In samples with “+”, the cell growth rate (%) exceeded 100)
40 | glutamic acid-hydroxyproline-glycine [EOG] | ++
41 | glycine-proline-hydroxyproline [GPO] | ++
42 | leucine-hydroxyproline [LO] | + (In samples with “+”, the cell growth rate (%) exceeded 100)
43 | phenylalanine-hydroxyproline [FO] | + (In samples with “+”, the cell growth rate (%) exceeded 100)
44 | proline-alanine [PA] | + (In samples with “+”, the cell growth rate (%) exceeded 100)
45 | proline-alanine-glycine [PAG] | + (In samples with “+”, the cell growth rate (%) exceeded 100)
46 | proline-proline [PP] | ++
47 | serine-hydroxyproline-glycine [SOG] | + (In samples with “+”, the cell growth rate (%) exceeded 100)

Same assay, conditions: final concentration 0.05 mM, Table 4 (control test)

Row | Molecule | Assessment
48 | C[C@H](N)C(=O)O [Ala, alanine, reference compound] | −
49 | N=C(N)NCCC[C@H](N)C(=O)O [Arg, arginine, reference compound] | −
50 | NC(=O)CC[C@H](N)C(=O)O [Gln, glutamine, reference compound] | −
51 | O=C(O)[C@@H]1CCCN1 [Pro, proline, reference compound] | −

Same assay, conditions: final concentration 0.5 mM, 72 hours culture, control = 100

Row | Molecule | Growth rate control = 100
52 | C[C@H](N)C(=O)O [Ala, alanine, reference compound] | 100 ± 8%
53 | N=C(N)NCCC[C@H](N)C(=O)O [Arg, arginine, reference compound] | 98 ± 3%
54 | NCC(=O)O.O=C(O)[C@@H]1CCCN1 [GP, glycine-proline] | 109 ± 2%
55 | NC(=O)CC[C@H](N)C(=O)O [Gln, glutamine, reference compound] | 94 ± 5%
56 | O=C(O)[C@@H]1C[C@@H](O)CN1 [O, hydroxyproline] | 114 ± 3%
57 | NCC(=O)O.O=C(O)[C@@H]1CCCN1 [PG, proline-glycine] | 120 ± 1%
58 | O=C(O)[C@@H]1CCCN1 [Pro, proline, reference compound] | 93 ± 5%
59 | alanine-hydroxyproline-glycine [AOG] | 126 ± 2%
60 | glutamic acid-hydroxyproline [EO] | 109 ± 4%
61 | glutamic acid-hydroxyproline-glycine [EOG] | 131 ± 1%
62 | glycine-proline-hydroxyproline [GPO] | 125 ± 4%
63 | leucine-hydroxyproline [LO] | 105 ± 2%
64 | phenylalanine-hydroxyproline [FO] | 106 ± 2%
65 | proline-alanine [PA] | 111 ± 1%
66 | proline-alanine-glycine [PAG] | 113 ± 1%
67 | proline-proline [PP] | 113 ± 6%
68 | serine-hydroxyproline-glycine [SOG] | 116 ± 3%

Same assay, conditions: final concentration 0.5 mM, Table 1

Row | Molecule | Assessment
69 | NCC(=O)O.O=C(O)[C@@H]1CCCN1 [GP, glycine-proline] | ++
70 | O=C(O)[C@@H]1C[C@@H](O)CN1 [O, hydroxyproline] | ++
71 | NCC(=O)O.O=C(O)[C@@H]1CCCN1 [PG, proline-glycine] | ++
72 | alanine-hydroxyproline-glycine [AOG] | ++
73 | glutamic acid-hydroxyproline [EO] | + (In samples with “+”, the cell growth rate (%) exceeded 100)
74 | glutamic acid-hydroxyproline-glycine [EOG] | ++
75 | glycine-proline-hydroxyproline [GPO] | ++
76 | leucine-hydroxyproline [LO] | + (In samples with “+”, the cell growth rate (%) exceeded 100)
77 | phenylalanine-hydroxyproline [FO] | + (In samples with “+”, the cell growth rate (%) exceeded 100)
78 | proline-alanine [PA] | + (In samples with “+”, the cell growth rate (%) exceeded 100)
79 | proline-alanine-glycine [PAG] | ++
80 | proline-proline [PP] | ++
81 | serine-hydroxyproline-glycine [SOG] | ++

Same assay, conditions: final concentration 0.5 mM, Table 4 (control test)

Row | Molecule | Assessment
82 | C[C@H](N)C(=O)O [Ala, alanine, reference compound] | −
83 | N=C(N)NCCC[C@H](N)C(=O)O [Arg, arginine, reference compound] | −
84 | NC(=O)CC[C@H](N)C(=O)O [Gln, glutamine, reference compound] | −
85 | O=C(O)[C@@H]1CCCN1 [Pro, proline, reference compound] | −

Same assay, conditions: final concentration 5 mM, 72 hours culture, control = 100

Row | Molecule | Growth rate control = 100
86 | C[C@H](N)C(=O)O [Ala, alanine, reference compound] | 95 ± 1%
87 | N=C(N)NCCC[C@H](N)C(=O)O [Arg, arginine, reference compound] | 101 ± 2%
88 | NCC(=O)O.O=C(O)[C@@H]1CCCN1 [GP, glycine-proline] | 114 ± 2%
89 | NC(=O)CC[C@H](N)C(=O)O [Gln, glutamine, reference compound] | 100 ± 4%
90 | O=C(O)[C@@H]1C[C@@H](O)CN1 [O, hydroxyproline] | 110 ± 5%
91 | NCC(=O)O.O=C(O)[C@@H]1CCCN1 [PG, proline-glycine] | 120 ± 5%
92 | O=C(O)[C@@H]1CCCN1 [Pro, proline, reference compound] | 96 ± 1%
93 | alanine-hydroxyproline-glycine [AOG] | 119 ± 2%
94 | glutamic acid-hydroxyproline-glycine [EOG] | 121 ± 8%
95 | glycine-proline-hydroxyproline [GPO] | 120 ± 4%
96 | leucine-hydroxyproline [LO] | 104 ± 5%
97 | phenylalanine-hydroxyproline [FO] | 104 ± 1%
98 | proline-alanine [PA] | 107 ± 5%
99 | proline-alanine-glycine [PAG] | 115 ± 4%
100 | proline-proline [PP] | 109 ± 2%
101 | serine-hydroxyproline-glycine [SOG] | 109 ± 2%

Same assay, conditions: final concentration 5 mM, Table 1

Row | Molecule | Assessment
102 | NCC(=O)O.O=C(O)[C@@H]1CCCN1 [GP, glycine-proline] | ++
103 | O=C(O)[C@@H]1C[C@@H](O)CN1 [O, hydroxyproline] | ++
104 | NCC(=O)O.O=C(O)[C@@H]1CCCN1 [PG, proline-glycine] | ++
105 | alanine-hydroxyproline-glycine [AOG] | ++
106 | glutamic acid-hydroxyproline-glycine [EOG] | ++
107 | glycine-proline-hydroxyproline [GPO] | ++
108 | leucine-hydroxyproline [LO] | + (In samples with “+”, the cell growth rate (%) exceeded 100)
109 | phenylalanine-hydroxyproline [FO] | ++
110 | proline-alanine [PA] | + (In samples with “+”, the cell growth rate (%) exceeded 100)
111 | proline-alanine-glycine [PAG] | ++
112 | proline-proline [PP] | ++
113 | serine-hydroxyproline-glycine [SOG] | + (In samples with “+”, the cell growth rate (%) exceeded 100)

Same assay, conditions: final concentration 5 mM, Table 4 (control test)

Row | Molecule | Assessment
114 | C[C@H](N)C(=O)O [Ala, alanine, reference compound] | −
115 | N=C(N)NCCC[C@H](N)C(=O)O [Arg, arginine, reference compound] | −
116 | NC(=O)CC[C@H](N)C(=O)O [Gln, glutamine, reference compound] | −
117 | O=C(O)[C@@H]1CCCN1 [Pro, proline, reference compound] | −
